Data from ChEMBL document CHEMBL1221346, “Synthesis and biological activity of N-substituted aminocarbonyl-1,3-dioxolanes as VLA-4 antagonists” (Bioorg Med Chem Lett, 2010).
Peptide text beside a SMILES is read from it. * marks the point of attachment. Tos = Cc1ccc(S(=O)(=O)*)cc1

Molecular target: T1, Integrin alpha-4 (Homo sapiens, UniProt P13612)
T1 sequence (P13612 whole entry): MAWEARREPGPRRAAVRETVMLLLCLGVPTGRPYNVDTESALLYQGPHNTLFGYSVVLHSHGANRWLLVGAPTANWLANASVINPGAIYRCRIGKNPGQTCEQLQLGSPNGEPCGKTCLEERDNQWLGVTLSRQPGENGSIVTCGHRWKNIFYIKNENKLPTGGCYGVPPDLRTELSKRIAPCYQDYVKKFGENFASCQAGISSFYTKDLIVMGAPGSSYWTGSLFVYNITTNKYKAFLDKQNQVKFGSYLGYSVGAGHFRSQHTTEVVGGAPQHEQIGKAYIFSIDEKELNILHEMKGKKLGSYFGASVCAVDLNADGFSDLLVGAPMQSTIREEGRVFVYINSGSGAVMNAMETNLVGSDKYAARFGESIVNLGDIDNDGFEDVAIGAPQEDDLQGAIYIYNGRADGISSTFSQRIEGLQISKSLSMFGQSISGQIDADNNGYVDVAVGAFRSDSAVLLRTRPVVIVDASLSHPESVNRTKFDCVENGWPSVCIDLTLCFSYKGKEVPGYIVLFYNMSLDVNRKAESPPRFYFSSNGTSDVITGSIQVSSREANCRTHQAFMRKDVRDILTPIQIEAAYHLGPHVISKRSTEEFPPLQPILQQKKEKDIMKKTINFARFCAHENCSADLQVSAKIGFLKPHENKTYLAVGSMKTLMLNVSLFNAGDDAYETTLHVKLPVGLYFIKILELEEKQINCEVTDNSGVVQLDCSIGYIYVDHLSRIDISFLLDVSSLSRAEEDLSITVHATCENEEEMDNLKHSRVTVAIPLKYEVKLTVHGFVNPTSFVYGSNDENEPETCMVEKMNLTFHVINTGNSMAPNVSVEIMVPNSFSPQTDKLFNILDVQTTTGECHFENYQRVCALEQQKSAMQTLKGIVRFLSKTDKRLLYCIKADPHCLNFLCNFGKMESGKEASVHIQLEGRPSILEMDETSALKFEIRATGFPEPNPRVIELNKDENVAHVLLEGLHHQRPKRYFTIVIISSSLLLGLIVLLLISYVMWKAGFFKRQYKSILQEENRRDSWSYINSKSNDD
Test: Displacement of VCAM1 from VLA4 receptor in human U937 cells
Type: cell-based, U-937
Details: not given

| Structure (SMILES) | IC50 [nM] |
| --- | --- |
| O=C(O)[C@H](Cc1ccc(OCc2c(F)cccc2F)cc1)NC(=O)[C@@H]1OCO[C@H]1C(=O)Nc1ccccc1-c1ccccc1 | 7900 |
| CCNC(=O)[C@@H]1OCO[C@H]1C(=O)N[C@@H](Cc1ccc(OCc2c(Cl)cccc2Cl)cc1)C(=O)O | 2100 |
| O=C(Nc1ccc(C[C@H](NC(=O)[C@@H]2OCO[C@H]2C(=O)Nc2ccccc2-c2ccccc2)C(=O)O)cc1)c1ccccn1 | 8300 |
| O=C(Nc1ccc(C[C@H](NC(=O)[C@@H]2OCO[C@H]2C(=O)Nc2ccccc2-c2ccccc2)C(=O)O)cc1)c1cccnc1 | 9500 |
| CC(C)NC(=O)[C@@H]1OCO[C@H]1C(=O)N[C@@H](Cc1ccc(OCc2c(Cl)cccc2Cl)cc1)C(=O)O | 6600 |
| CCCCCCCNC(=O)[C@@H]1OCO[C@H]1C(=O)N[C@@H](Cc1ccc(OCc2c(Cl)cccc2Cl)cc1)C(=O)O | 4400 |
| Cc1ccc(-n2nc(C(C)(C)C)cc2NC(=O)[C@@H]2OCO[C@H]2C(=O)N[C@@H](Cc2ccc(OCc3c(Cl)cccc3Cl)cc2)C(=O)O)cc1 | 2600 |
| O=C(O)[C@H](Cc1ccc(OCc2c(Cl)cccc2Cl)cc1)NC(=O)[C@@H]1OCO[C@H]1C(=O)N1CCOCC1 | 3400 |
| COc1ccccc1C(=O)Nc1ccc(C[C@H](NC(=O)[C@@H]2OCO[C@H]2C(=O)Nc2ccccc2-c2ccccc2)C(=O)O)cc1 | 6300 |
| O=C(Nc1ccc(C[C@H](NC(=O)[C@@H]2OCO[C@H]2C(=O)Nc2ccccc2-c2ccccc2)C(=O)O)cc1)c1ccccc1 | 9000 |
| O=C(Nc1ccc(C[C@H](NC(=O)[C@@H]2OCO[C@H]2C(=O)Nc2ccccc2-c2ccccc2)C(=O)O)cc1)c1cc(Cl)nc(Cl)c1 | 6300 |
| O=C(O)[C@H](Cc1ccc(OCc2ccccc2Cl)cc1)NC(=O)[C@@H]1OCO[C@H]1C(=O)Nc1ccccc1-c1ccccc1 | 8700 |
| O=C(O)[C@H](Cc1ccc(OCc2c(Cl)cccc2Cl)cc1)NC(=O)[C@@H]1OCO[C@H]1C(=O)Nc1ccc(Cl)cc1 | 2800 |
| CN(C)C(=O)[C@@H]1OCO[C@H]1C(=O)N[C@@H](Cc1ccc(OCc2c(Cl)cccc2Cl)cc1)C(=O)O | 1500 |
| O=C(Nc1ccc(C[C@H](NC(=O)[C@@H]2OCO[C@H]2C(=O)Nc2ccccc2-c2ccccc2)C(=O)O)cc1)c1ccncc1 | 2700 |
| O=C(O)[C@H](Cc1ccc(OCc2c(Cl)cccc2Cl)cc1)NC(=O)[C@@H]1OCO[C@H]1C(=O)NCc1ccc2c(c1)OCO2 | 3000 |
| Cc1nnc(NC(=O)[C@@H]2OCO[C@H]2C(=O)N[C@@H](Cc2ccc(OCc3c(Cl)cccc3Cl)cc2)C(=O)O)s1 | 1500 |
| CCCCNC(=O)[C@@H]1OCO[C@H]1C(=O)N[C@@H](Cc1ccc(OCc2c(Cl)cccc2Cl)cc1)C(=O)O | 1500 |

The remaining lines, values ahead:

| IC50 [nM] | Structure (SMILES) |
| --- | --- |
| 1500 | O=C(O)[C@H](Cc1ccc(OCc2c(Cl)cccc2Cl)cc1)NC(=O)[C@@H]1OCO[C@H]1C(=O)Nc1ccccc1 |
| 1400 | O=C(O)[C@H](Cc1ccc(OCc2c(Cl)cccc2Cl)cc1)NC(=O)[C@@H]1OCO[C@H]1C(=O)NC1CCCCC1 |
| 1200 | CC(C)(C)NC(=O)[C@@H]1OCO[C@H]1C(=O)N[C@@H](Cc1ccc(OCc2c(Cl)cccc2Cl)cc1)C(=O)O |
| 1200 | CNC(=O)[C@@H]1OCO[C@H]1C(=O)N[C@@H](Cc1ccc(OCc2c(Cl)cccc2Cl)cc1)C(=O)O |
| 1100 | CC(C)CCNC(=O)[C@@H]1OCO[C@H]1C(=O)N[C@@H](Cc1ccc(OCc2c(Cl)cccc2Cl)cc1)C(=O)O |
| 1000 | CC(C)(C)c1cc(NC(=O)[C@@H]2OCO[C@H]2C(=O)N[C@@H](Cc2ccc(OCc3c(Cl)cccc3Cl)cc2)C(=O)O)n(Cc2ccccc2)n1 |
| 900 | O=C(O)[C@H](Cc1ccc(OCc2c(Cl)cccc2Cl)cc1)NC(=O)[C@@H]1OCO[C@H]1C(=O)Nc1ccccc1C(F)(F)F |
| 700 | O=C(O)[C@H](Cc1ccc(OCc2c(Cl)cccc2Cl)cc1)NC(=O)[C@@H]1OCO[C@H]1C(=O)Nc1c(Cl)cccc1Cl |
| 700 | O=C(O)[C@H](Cc1ccc(OCc2c(Cl)cccc2Cl)cc1)NC(=O)[C@@H]1OCO[C@H]1C(=O)Nc1ccccc1Cl |
| 700 | O=C(O)[C@H](Cc1ccc(OCc2c(Cl)cccc2Cl)cc1)NC(=O)[C@@H]1OCO[C@H]1C(=O)NCc1cccs1 |
| 600 | O=C(O)[C@H](Cc1ccc(OCc2c(Cl)cccc2Cl)cc1)NC(=O)[C@@H]1OCO[C@H]1C(=O)NCCc1c[nH]c2ccccc12 |
| 600 | O=C(O)[C@H](Cc1ccc(OCc2c(Cl)cccc2Cl)cc1)NC(=O)[C@@H]1OCO[C@H]1C(=O)Nc1ccccc1F |
| 600 | O=C(O)[C@H](Cc1ccc(OCc2c(Cl)cccc2Cl)cc1)NC(=O)[C@@H]1OCO[C@H]1C(=O)Nc1nc2ccccc2s1 |
| 600 | COc1ccccc1NC(=O)[C@@H]1OCO[C@H]1C(=O)N[C@@H](Cc1ccc(OCc2c(Cl)cccc2Cl)cc1)C(=O)O |
| 500 | O=C(O)[C@H](Cc1ccc(OCc2c(Cl)cccc2Cl)cc1)NC(=O)[C@@H]1OCO[C@H]1C(=O)Nc1c(F)cccc1F |
| 500 | O=C(O)[C@H](Cc1ccc(OCc2c(Cl)cccc2Cl)cc1)NC(=O)[C@@H]1OCO[C@H]1C(=O)Nc1ccccc1-c1ccccc1 |
| 400 | O=C(O)[C@H](Cc1ccc(OCc2c(Cl)cccc2Cl)cc1)NC(=O)[C@@H]1OCO[C@H]1C(=O)Nc1c(Cl)cncc1Cl |
| 300 | O=C(O)[C@H](Cc1ccc(OCc2c(Cl)cccc2Cl)cc1)NC(=O)[C@@H]1OCO[C@H]1C(=O)NC1CC1 |
| 200 | O=C(O)[C@H](Cc1ccc(OCc2c(Cl)cccc2Cl)cc1)NC(=O)[C@@H]1OCO[C@H]1C(=O)Nc1nccs1 |
| 100 | O=C(Nc1ccc(C[C@H](NC(=O)[C@@H]2OCO[C@H]2C(=O)Nc2ccccc2-c2ccccc2)C(=O)O)cc1)c1c(Cl)cccc1Cl |

Test system: not listed separately
Test: Metabolic stability in human liver microsome at 8 uM after 1 hr
Type: ADME
Details: liver microsomes, read-out: Stability

| remaining at 1 h, 8 µM [%] | Structure (SMILES) |
| --- | --- |
| 72 | O=C(O)[C@H](Cc1ccc(OCc2c(Cl)cccc2Cl)cc1)NC(=O)[C@@H]1OCO[C@H]1C(=O)NC1CC1 |
| 52 | O=C(O)[C@H](Cc1ccc(OCc2c(Cl)cccc2Cl)cc1)NC(=O)[C@@H]1OCO[C@H]1C(=O)Nc1nccs1 |

Test system: not listed separately
Test: Oral bioavailability in rat
Type: ADME, organism-based
Details: in vivo

| bioavailability [%] | Structure (SMILES) |
| --- | --- |
| 10 | Cc1ccc(S(=O)(=O)N2CCC[C@H]2C(=O)N[C@@H](Cc2ccccc2)C(=O)O)cc1 (Tos-Pro-Phe-OH) |
